# Structures can show the parent of a compound that is named as a salt.
# Columns and labels:
# [1] = system: NCI-H292 lung cancer cells; assay: FDA drug screening, complete media vs cholesterol-free media without statin (TABLE 1); type: cell-based, human
# [2] = system: NCI-H292 lung cancer cells; assay: FDA drug screening, complete media vs cholesterol-free media with simvastatin (TABLE 2); type: cell-based, human; settings: for Cholesterol-free media + simvastatin (0.04 μM) / Complete Media: NCI-H292 cells
# [3] = Complete minus Cholesterol-free; >0 enhanced anti-cancer activity, about 0 neutral, <0 antagonist
# [4] = NCI-H292 cells, cholesterol-free media without statin, FDA drug library screen
# [5] = NCI-H292 cells, complete media, FDA drug library screen
# [6] = drug in cholesterol-free media with simvastatin 0.04 μM
# [7] = complete media vs cholesterol-free media + simvastatin (0.04 μM), >0 enhanced anti-cancer activity, about 0 neutral, <0 antagonist
# [8] = complete vs cholesterol-free media; >0 enhanced anti-cancer activity, about 0 neutral, <0 antagonist
# [9] = FDA drug library screen, cholesterol-free media with simvastatin 0.04 μM
# [10] = FDA drug library screen, complete media
# [11] = complete media minus cholesterol-free media + simvastatin, >0 enhanced anti-cancer activity, about 0 neutral, <0 antagonist
# [12] = Complete minus Cholesterol-free; greater than 0 enhanced anti-cancer activity, about 0 neutral, below 0 antagonist
# [13] = NCI-H292 cells, FDA drug library screen, cholesterol-free media without statin
# [14] = NCI-H292 cells, FDA drug library screen, complete media
# [15] = FDA library drug in cholesterol-free media with simvastatin 0.04 μM
# [16] = FDA library drug in complete media
# [17] = cholesterol-free media with simvastatin 0.04 μM, cell growth value in FDA drug screen
# [18] = complete media, cell growth value in FDA drug screen
# [19] = complete media vs cholesterol-free media + simvastatin (0.04 μM), […]
# [20] = cholesterol-free media with simvastatin 0.04 μM, FDA drug library screen (TABLE 2)
# [21] = complete media, FDA drug library screen (TABLE 2)
# [22] = complete media minus cholesterol-free media + simvastatin (0.04 μM), >0 enhanced anti-cancer activity, about 0 neutral, <0 antagonist
# [23] = Complete minus Cholesterol-free; […]
# [24] = NCI-H292 cells, cholesterol-free media without statin
structure (smiles),measurement,setting,value
OC[C@H]1OC(O)[C@H](O)[C@@H](O)[C@@H]1O (stereo partly drawn) [D-Glucose],Difference,[1]; [3],−0.06
same,Cholesterol-free,[1]; [4],0.3615
same,Complete,[1]; [5],0.3017
same,Cholesterol-free media + simvastatin (0.04 μM),[2]; [6],0.822
same,Complete Media,[2]; drug in complete media,0.5991
same,Difference,[2]; [7],−0.22
OC[C@@H](O)[C@@H](O)[C@H](O)[C@H](O)CO [D-Mannitol],Cholesterol-free,[1]; [4],0.8621
same,Complete,[1]; [5],1.662
same,Difference,[1]; [8],0.80
same,Cholesterol-free media + simvastatin (0.04 μM),[2]; [9],1.033
same,Complete Media,[2]; [10],1.748
same,Difference,[2]; [11],0.71
CC(C)(CO)[C@H](O)C(=O)NCCCO [D-Panthenol],Difference,[1]; [12],−0.09
same,Cholesterol-free,[1]; [13],1.002
same,Complete,[1]; [14],0.9087
same,Cholesterol-free media + simvastatin (0.04 μM),[2]; [6],1.067
same,Complete Media,[2]; drug in complete media,0.817
same,Difference,[2]; [7],−0.25
CC(C)(CO)[C@@H](O)C(=O)NCCC(=O)[O-].CC(C)(CO)[C@@H](O)C(=O)NCCC(=O)[O-].[Ca+2] [D-Pantothenic acid (hemicalcium salt)],Difference,[1]; [3],−0.04
same,Cholesterol-free,[1]; [4],0.8788
same,Complete,[1]; [5],0.8434
same,Cholesterol-free media + simvastatin (0.04 μM),[2]; [15],1.159
same,Complete Media,[2]; [16],0.786
same,Difference,[2]; [7],−0.37
CC(C)(CO)[C@H](O)C(=O)NCCC(=O)O.[Na] [D-Pantothenic acid (sodium)],Difference,[1]; [3],−0.03
same,Cholesterol-free,[1]; [4],1.02
same,Complete,[1]; [5],0.9879
same,Cholesterol-free media + simvastatin (0.04 μM),[2]; [6],1.102
same,Complete Media,[2]; drug in complete media,0.858
same,Difference,[2]; [7],−0.24
OC[C@@H](O)[C@@H](O)[C@H](O)[C@@H](O)CO [D-Sorbitol],Cholesterol-free,[1]; [4],1.006
same,Complete,[1]; [5],1.32
same,Difference,[1]; [8],0.31
same,Cholesterol-free media + simvastatin (0.04 μM),[2]; [9],1.142
same,Complete Media,[2]; [10],1.023
same,Difference,[2]; [7],−0.12
N[C@H](Cc1ccc(O)cc1)C(=O)O [D-Tyrosine],Difference,[1]; [3],−0.01
same,Cholesterol-free,[1]; [4],1.081
same,Complete,[1]; [5],1.068
same,Cholesterol-free media + simvastatin (0.04 μM),[2]; [15],1.43
same,Complete Media,[2]; [16],0.9975
same,Difference,[2]; [7],−0.43
CC(=O)Oc1c(C)c(C)c2c(c1C)CCC(C)(CCC[C@H](C)CCC[C@H](C)CCCC(C)C)O2 (stereo partly drawn) [D-α-Tocopherol acetate],Cholesterol-free,[1]; [4],0.7729
same,Complete,[1]; [5],1.233
same,Difference,[1]; [8],0.46
same,Cholesterol-free media + simvastatin (0.04 μM),[2]; [17],0.8974
same,Complete Media,[2]; [18],1.003
same,Difference,[2]; [11],0.11
C[C@]12CC[C@H](O)CC1=CC[C@@H]1[C@@H]2CC[C@]2(C)C(=O)CC[C@@H]12 [DHEA],Cholesterol-free,[1]; [4],1.449
same,Complete,[1]; [5],1.634
same,Difference,[1]; complete vs cholesterol-free media; […],0.19
same,Cholesterol-free media + simvastatin (0.04 μM),[2]; [15],1.034
same,Complete Media,[2]; [16],0.7371
same,Difference,[2]; [19],−0.30
CCCCCCOC(=O)N=C(N)c1ccc(NCc2nc3cc(C(=O)N(CCC(=O)OCC)c4ccccn4)ccc3n2C)cc1 [Dabigatran etexilate],Difference,[1]; [12],−0.09
same,Cholesterol-free,[1]; [13],0.9682
same,Complete,[1]; [14],0.8738
same,Cholesterol-free media + simvastatin (0.04 μM),[2]; [17],0.8555
same,Complete Media,[2]; [18],0.8818
same,Difference,[2]; [11],0.03
CC(C)(C)c1nc(-c2cccc(NS(=O)(=O)c3c(F)cccc3F)c2F)c(-c2ccnc(N)n2)s1 [Dabrafenib],Difference,[1]; [12],−0.18
same,Cholesterol-free,[1]; [13],0.7255
same,Complete,[1]; [14],0.5433
same,Cholesterol-free media + simvastatin (0.04 μM),[2]; [20],0.7299
same,Complete Media,[2]; [21],0.7037
same,Difference,[2]; [22],−0.03
CN(C)/N=N/c1[nH]cnc1C(N)=O [Dacarbazine],Difference,[1]; [12],−0.11
same,Cholesterol-free,[1]; [13],1.191
same,Complete,[1]; [14],1.077
same,Cholesterol-free media + simvastatin (0.04 μM),[2]; [9],1.089
same,Complete Media,[2]; [10],0.9656
same,Difference,[2]; [7],−0.12
COC(=O)N[C@H](C(=O)N1CCC[C@H]1c1nc(-c2ccc(-c3ccc(-c4c[nH]c([C@@H]5CCCN5C(=O)[C@@H](NC(=O)OC)C(C)C)n4)cc3)cc2)c[nH]1)C(C)C [Daclatasvir (dihydrochloride)],Difference,[1]; [3],0.02
same,Cholesterol-free,[1]; [4],1.025
same,Complete,[1]; [5],1.046
same,Cholesterol-free media + simvastatin (0.04 μM),[2]; [15],1.149
same,Complete Media,[2]; [16],0.7215
same,Difference,[2]; [7],−0.43
COC(=O)N[C@H](C(=O)N1CCC[C@H]1c1nc(-c2ccc(-c3ccc(-c4c[nH]c([C@@H]5CCCN5C(=O)[C@@H](NC(=O)OC)C(C)C)n4)cc3)cc2)c[nH]1)C(C)C [Daclatasvir],Difference,[1]; [3],0.04
same,Cholesterol-free,[1]; [4],0.703
same,Complete,[1]; [5],0.7437
same,Cholesterol-free media + simvastatin (0.04 μM),[2]; [9],0.9463
same,Complete Media,[2]; [10],1.136
same,Difference,[2]; [11],0.19
COc1cc2ncnc(Nc3ccc(F)c(Cl)c3)c2cc1NC(=O)/C=C/CN1CCCCC1 [Dacomitinib],Difference,[1]; [12],−0.12
same,Cholesterol-free,[1]; [13],0.3597
same,Complete,[1]; [14],0.2371
same,Cholesterol-free media + simvastatin (0.04 μM),[2]; [17],0.3301
same,Complete Media,[2]; [18],0.437
same,Difference,[2]; [11],0.11
O=c1c(-c2ccc(O)cc2)coc2cc(O)ccc12 [Daidzein],Difference,[1]; [3],−0.02
same,Cholesterol-free,[1]; [4],1.1
same,Complete,[1]; [5],1.082
same,Cholesterol-free media + simvastatin (0.04 μM),[2]; [9],1.306
same,Complete Media,[2]; [10],1.614
same,Difference,[2]; [11],0.31
O=c1c(-c2ccc(O)cc2)coc2cc(O[C@@H]3O[C@H](CO)[C@@H](O)[C@H](O)[C@H]3O)ccc12 [Daidzin],Difference,[1]; [23],−0.25
same,Cholesterol-free,[1]; [24],1.084
same,Complete,"[1]; NCI-H292 cells, complete media",0.8381
same,Cholesterol-free media + simvastatin (0.04 μM),[2]; [6],1.011
same,Complete Media,[2]; drug in complete media,0.8061
same,Difference,[2]; [19],−0.20
CN[C@H]1C(=O)N[C@@H]2Cc3ccc(cc3)Oc3cc4cc(c3O[C@@H]3O[C@H](C(=O)O)[C@@H](O)[C@H](O)[C@H]3NC(=O)CCCCCCCCC(C)C)Oc3ccc(cc3Cl)[C@@H](O)[C@@H]3NC(=O)[C@H](NC(=O)[C@@H]4NC(=O)[C@@H](NC2=O)c2cc(cc(O)c2Cl)Oc2cc1ccc2O)c1ccc(O)c(c1)-c1c(O[C@H]2O[C@H](CO)[C@@H](O)[C@H](O)[C@@H]2O)cc(O)cc1[C@@H](C(=O)NCCCN(C)C)NC3=O [Dalbavancin (hydrochloride)],Difference,[1]; [23],−0.27
same,Cholesterol-free,[1]; [24],1.639
same,Complete,"[1]; NCI-H292 cells, complete media",1.366
same,Cholesterol-free media + simvastatin (0.04 μM),[2]; [6],1.058
same,Complete Media,[2]; drug in complete media,0.8779
same,Difference,[2]; [19],−0.18
C#C[C@]1(O)CC[C@H]2[C@@H]3CCC4=Cc5oncc5C[C@]4(C)[C@H]3CC[C@@]21C [Danazol],Difference,[1]; [3],−0.06
same,Cholesterol-free,[1]; [4],0.8249
same,Complete,[1]; [5],0.7604
same,Cholesterol-free media + simvastatin (0.04 μM),[2]; [9],1.056
same,Complete Media,[2]; [10],0.9458
same,Difference,[2]; [7],−0.11
CC(C)(C)OC(=O)N[C@H]1CCCCC/C=C\[C@@H]2C[C@@]2(C(=O)NS(=O)(=O)C2CC2)NC(=O)[C@@H]2C[C@@H](OC(=O)N3Cc4cccc(F)c4C3)CN2C1=O [Danoprevir],Cholesterol-free,[1]; [4],0.802
same,Complete,[1]; [5],1.257
same,Difference,[1]; [8],0.45
same,Cholesterol-free media + simvastatin (0.04 μM),[2]; [20],0.8835
same,Complete Media,[2]; [21],0.8799
same,Difference,[2]; [22],0.00
O=C1c2cccc(O)c2C(=O)c2c(O)cccc21 [Danthron],Difference,[1]; [12],−0.15
same,Cholesterol-free,[1]; [13],0.9427
same,Complete,[1]; [14],0.7921
same,Cholesterol-free media + simvastatin (0.04 μM),[2]; [6],1.634
same,Complete Media,[2]; drug in complete media,1.469
same,Difference,[2]; [7],−0.16

# Source: US20250144067A1, “PERSONALIZED STARVATION THERAPY FOR CANCER” (Faeth Therapeutics, Inc., priority 2021, published 2025)
